Data reported in the supplement of paper PMC10307832.

What was measured:
[1] = compound: CC(C)C[C@H](NC(=O)[C@H](Cc1ccccc1)NC(=O)c1cnccn1)B(O)O [Bortezomib]; test: relative viability (nuclei count vs DMSO), 5 days (fraction); higher = more cells survive
In short: (§1)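 Viability was read as treated-well nuclei divided by vehicle-well nuclei, using the median across plates. Lung cancer cell lines in 1536-well plates were kept overnight at 37 °C, pinned with five √10-spaced library-drug doses, and after 5 days were Hoechst-stained, imaged at 4× and counted in MetaXpress. Plates passed only with control CV below 25% and at least one doubling.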

[2] = compound: COC1=CC(c2cc3ccccc3[nH]2)=N/C1=C\c1[nH]c(C)cc1C [Obatoclax]; test: as above
In short: as §1

Cell Line	relative viability ([1]; 0.0002 µM)	relative viability ([1]; 0.000632 µM)	relative viability ([1]; 0.002 µM)	relative viability ([1]; 0.006325 µM)	relative viability ([1]; 0.02 µM)	relative viability ([2]; 0.01 µM)	relative viability ([2]; 0.03162 µM)	relative viability ([2]; 0.1 µM)	relative viability ([2]; 0.3162 µM)	relative viability ([2]; 1 µM)	relative viability ([1]; 0.002 µM, anchor plate)
NCI-H1648	0.771	0.769	0.529	0.622	0.312	1.02	0.85	1.64	0.718	0.815	–
NCI-H1650	0.751	0.805	0.2	0.161	0.167	0.938	0.981	0.879	0.646	0.34	0.206
NCI-H1651	0.992	0.969	0.727	0.173	0.121	0.954	0.957	1.07	0.847	0.754	0.943
NCI-H1666	1.01	1.04	0.963	0.493	0.317	0.995	1.03	1.08	0.856	0.517	0.855
NCI-H1703	1.15	0.757	0.356	0.132	0.119	0.955	0.846	0.858	0.72	0.542	0.338
NCI-H1734	0.929	1.01	0.944	0.15	0.119	1.01	0.934	0.812	0.821	0.365	0.945
NCI-H1755	1.01	0.96	1.02	0.378	0.224	0.981	0.975	0.884	0.994	0.964	0.963
NCI-H1792	0.754	0.838	0.904	0.602	0.277	0.985	0.795	–	0.92	0.7	0.956
NCI-H1793	0.843	0.705	0.997	0.688	0.208	0.949	0.795	0.859	0.929	0.986	–
NCI-H1915	0.948	1	1.09	0.91	0.0999	0.973	0.949	0.898	0.999	0.941	0.96
NCI-H1944	0.926	0.94	0.917	0.854	0.283	1.04	0.883	1.01	1.01	1.02	–
NCI-H1975	0.902	0.858	0.239	0.153	0.158	1.02	0.865	–	0.977	0.717	0.395
NCI-H1993	0.903	0.935	1.01	0.493	0.502	0.92	0.865	1.07	1.03	0.896	1.19
NCI-H2009	1.01	0.977	1.07	0.0869	0.0749	0.958	1.02	0.85	0.626	0.301	0.971
NCI-H2023	1.02	0.9	1	0.139	0.0632	0.928	0.969	0.946	0.774	0.229	1.01
NCI-H2085	0.979	0.978	0.993	0.617	0.23	0.962	0.975	0.9	0.943	0.56	1.07

Cell Line	relative viability ([1]; 0.0002 µM)	relative viability ([1]; 0.000632 µM)	relative viability ([1]; 0.002 µM)	relative viability ([1]; 0.006325 µM)	relative viability ([1]; 0.02 µM)	relative viability ([2]; 0.01 µM)	relative viability ([2]; 0.03162 µM)	relative viability ([2]; 0.1 µM)	relative viability ([2]; 0.3162 µM)	relative viability ([2]; 1 µM)	relative viability ([1]; 0.002 µM, anchor plate)
NCI-H2087	0.9	1.08	0.726	0.0629	0.0618	1.01	1.14	0.8	0.876	0.298	0.79
NCI-H2126	0.968	1.02	1.03	0.924	0.749	1.03	0.959	0.931	0.989	0.918	1.1
NCI-H2170	0.96	0.824	1.07	0.815	0.177	0.942	0.979	1.01	0.961	0.977	–
NCI-H2228	0.929	0.974	0.638	0.103	0.123	0.951	0.922	1.01	0.791	0.595	1.06
NCI-H2342	1.1	0.948	1.02	1.03	0.748	1.02	1.08	1.06	0.857	0.954	–
NCI-H2347	1	0.936	1.03	0.615	0.339	0.999	0.946	0.843	0.946	0.926	1.08
NCI-H2405	0.96	0.907	0.988	0.293	0.18	1.07	0.997	–	1.01	1.07	0.939
NCI-H3122	1	0.957	1.07	0.825	0.149	0.985	0.931	0.927	0.984	1.01	1
PC-3 [JPC-3]	0.905	0.998	1.04	0.358	0.231	1.02	1.01	1.01	0.985	1.02	0.82
PC-14	0.957	0.939	0.942	0.188	0.0669	0.943	1.02	0.787	0.796	0.313	0.871
RERF-LC-KJ	0.995	0.949	1.02	0.366	0.239	0.98	1.03	0.989	0.924	0.715	1.11
SK-LU-1	1.02	0.969	0.778	0.212	0.162	1.03	1.04	0.797	0.808	0.616	1.22
SK-MES-1	0.98	0.959	1.05	0.319	0.185	0.961	1	0.947	0.721	0.414	–
SW 900	0.84	0.932	0.207	0.154	0.17	0.887	0.871	0.748	0.703	0.365	–
SW 1573	0.963	0.981	0.947	0.11	0.0607	1.07	0.957	0.966	0.709	0.257	1.02
UMC-11	0.896	0.927	0.946	0.668	0.185	1.02	0.962	0.843	0.921	0.554	0.757
